Experimental data reported in US9586951B2 (FUJIFILM Corporation, priority 2013, dated 2017).

Tests used:
[1] = system: human non-small cell lung cancer cell line NCI-H460; assay: Cell proliferation inhibition test by sensitivity-enhancing to ionizing radiation (Cell Titer Glo); assay type: cell-based; conditions: Homo sapiens, NCI-H460, 120 h, concentration in which SER became 2; NCI-H460 cells, ionizing radiation 2 Gy, cultured 120 hour
Method in brief: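 Radiosensitisation measured as SER, a ratio of Cell Titer Glo luminescence in irradiated vs unirradiated plates relative to DMSO; SER2, the concentration yielding SER 2, came from sigmoidal regression. Compound (0.1% DMSO) was given 24 h post-seeding, 2 Gy applied 30 min later, then 120 hour culture at 37° C.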

ATM = biological target: T1, ATM (Homo sapiens, UniProt Q13315); assay: ATM inhibition test (phosphorylation of Chk2 generated by ionizing radiation, AlphaScreen SureFire); assay type: cell-based; conditions: phosphorylated Chk2 in NCI-H460 cells, ionizing radiation 8Gy, 1 hour after test compound treatment; read-out: ATM inhibitory activity
T1 construct: detecting phosphorylation of Chk2 in a human non-small cell lung cancer cell line NCI-H460 (ATCC company); host or cells: NCI-H460 human non-small cell lung cancer cells
Method in brief: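 NCI-H460 cells, compound 1 h pre-treatment, 8Gy IR, further 1 h at 37° C in 5% CO2. Read-out: phospho-Chk2 via AlphaScreen SureFire. % inhibition relative to IR-induced signal window (irradiated vs non-irradiated drug-free wells).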

T1 sequence (Q13315 whole entry): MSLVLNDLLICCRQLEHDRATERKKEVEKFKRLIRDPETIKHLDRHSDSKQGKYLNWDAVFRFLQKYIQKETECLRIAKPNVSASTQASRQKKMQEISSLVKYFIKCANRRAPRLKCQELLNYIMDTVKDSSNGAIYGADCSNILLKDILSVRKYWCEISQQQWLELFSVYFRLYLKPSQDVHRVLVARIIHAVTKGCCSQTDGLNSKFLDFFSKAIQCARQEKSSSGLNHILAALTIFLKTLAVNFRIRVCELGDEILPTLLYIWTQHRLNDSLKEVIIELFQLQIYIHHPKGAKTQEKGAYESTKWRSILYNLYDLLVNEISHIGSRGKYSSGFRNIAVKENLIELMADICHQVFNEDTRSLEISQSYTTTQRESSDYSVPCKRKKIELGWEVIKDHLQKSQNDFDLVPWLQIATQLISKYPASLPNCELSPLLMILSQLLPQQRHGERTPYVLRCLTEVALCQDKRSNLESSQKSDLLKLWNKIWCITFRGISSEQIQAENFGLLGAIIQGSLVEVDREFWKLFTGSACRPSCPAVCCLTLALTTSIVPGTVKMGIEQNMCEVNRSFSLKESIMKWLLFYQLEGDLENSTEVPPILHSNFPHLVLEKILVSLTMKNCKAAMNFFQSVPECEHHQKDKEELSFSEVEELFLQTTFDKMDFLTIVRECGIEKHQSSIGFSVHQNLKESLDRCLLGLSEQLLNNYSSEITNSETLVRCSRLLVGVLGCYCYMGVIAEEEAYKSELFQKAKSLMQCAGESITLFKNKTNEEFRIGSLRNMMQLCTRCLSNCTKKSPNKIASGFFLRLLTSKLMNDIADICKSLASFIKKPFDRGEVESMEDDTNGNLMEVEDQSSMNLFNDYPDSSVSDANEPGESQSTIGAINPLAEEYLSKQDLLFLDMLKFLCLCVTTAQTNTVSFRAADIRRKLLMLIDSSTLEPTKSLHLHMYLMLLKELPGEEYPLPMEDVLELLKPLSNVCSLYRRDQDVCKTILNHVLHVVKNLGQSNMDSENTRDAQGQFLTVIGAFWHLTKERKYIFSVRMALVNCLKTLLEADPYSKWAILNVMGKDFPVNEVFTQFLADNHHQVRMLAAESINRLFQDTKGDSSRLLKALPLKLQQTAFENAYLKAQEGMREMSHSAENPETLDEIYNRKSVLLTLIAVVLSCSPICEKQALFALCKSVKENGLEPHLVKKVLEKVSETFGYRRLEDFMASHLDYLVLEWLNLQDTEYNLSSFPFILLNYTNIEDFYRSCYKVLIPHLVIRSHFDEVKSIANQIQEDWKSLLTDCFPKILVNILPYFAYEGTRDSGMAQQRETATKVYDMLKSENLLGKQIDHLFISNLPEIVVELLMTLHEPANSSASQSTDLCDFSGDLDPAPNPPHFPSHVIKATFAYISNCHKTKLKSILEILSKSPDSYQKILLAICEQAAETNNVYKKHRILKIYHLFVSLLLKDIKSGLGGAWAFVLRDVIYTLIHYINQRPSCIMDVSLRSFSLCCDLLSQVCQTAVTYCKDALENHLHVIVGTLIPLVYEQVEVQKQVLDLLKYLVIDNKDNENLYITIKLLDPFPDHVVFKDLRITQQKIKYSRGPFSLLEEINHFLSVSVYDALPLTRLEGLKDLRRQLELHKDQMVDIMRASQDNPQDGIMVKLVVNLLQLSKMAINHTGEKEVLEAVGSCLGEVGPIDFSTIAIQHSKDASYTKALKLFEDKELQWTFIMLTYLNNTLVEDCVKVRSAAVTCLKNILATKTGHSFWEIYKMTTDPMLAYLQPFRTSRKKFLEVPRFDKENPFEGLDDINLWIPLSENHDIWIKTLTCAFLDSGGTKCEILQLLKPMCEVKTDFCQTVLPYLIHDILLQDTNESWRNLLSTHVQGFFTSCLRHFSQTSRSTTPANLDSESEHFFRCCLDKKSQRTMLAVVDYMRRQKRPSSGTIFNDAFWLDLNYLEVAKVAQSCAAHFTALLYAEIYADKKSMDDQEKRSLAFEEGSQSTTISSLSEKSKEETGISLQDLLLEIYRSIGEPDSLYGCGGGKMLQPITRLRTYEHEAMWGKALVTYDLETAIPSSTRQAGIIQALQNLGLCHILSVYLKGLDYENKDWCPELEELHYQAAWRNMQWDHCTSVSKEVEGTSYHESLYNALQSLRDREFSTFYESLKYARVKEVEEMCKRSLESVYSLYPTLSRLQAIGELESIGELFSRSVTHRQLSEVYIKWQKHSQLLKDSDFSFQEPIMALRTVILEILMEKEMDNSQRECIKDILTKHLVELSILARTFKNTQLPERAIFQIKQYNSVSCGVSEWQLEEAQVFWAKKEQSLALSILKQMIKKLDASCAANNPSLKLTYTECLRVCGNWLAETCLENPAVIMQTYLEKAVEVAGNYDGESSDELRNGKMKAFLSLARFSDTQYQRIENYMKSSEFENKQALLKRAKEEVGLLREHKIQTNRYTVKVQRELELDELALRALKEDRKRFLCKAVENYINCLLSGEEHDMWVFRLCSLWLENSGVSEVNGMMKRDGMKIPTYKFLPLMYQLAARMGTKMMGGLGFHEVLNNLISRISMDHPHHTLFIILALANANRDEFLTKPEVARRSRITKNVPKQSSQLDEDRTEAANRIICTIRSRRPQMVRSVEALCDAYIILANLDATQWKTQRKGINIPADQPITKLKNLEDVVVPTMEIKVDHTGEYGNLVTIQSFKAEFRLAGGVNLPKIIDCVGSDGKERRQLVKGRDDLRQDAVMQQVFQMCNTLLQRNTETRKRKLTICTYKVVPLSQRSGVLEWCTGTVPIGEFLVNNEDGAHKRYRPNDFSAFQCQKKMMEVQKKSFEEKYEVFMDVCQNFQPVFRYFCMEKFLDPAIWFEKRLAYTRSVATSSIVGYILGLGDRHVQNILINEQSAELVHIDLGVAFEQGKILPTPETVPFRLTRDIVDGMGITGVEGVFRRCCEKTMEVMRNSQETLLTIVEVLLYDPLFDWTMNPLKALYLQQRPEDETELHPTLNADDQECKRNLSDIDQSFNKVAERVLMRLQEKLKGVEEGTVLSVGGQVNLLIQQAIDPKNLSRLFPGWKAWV

Row | SMILES | IC50 (ATM) [µM] | SER2 (concentration at which the radiation sensitivity-enhancement ratio reaches 2) [1] [nM]
1 | O=c1cc(N2CCOCC2)cc(-c2cccc3c2Sc2ccc(NCc4cc(C5CC5)ccn4)cc2S3)[nH]1 [Example 1-12-14, 6-(7-(((4-Cyclopropylpyridin-2-yl)methyl)amino)thianthren-1-yl)-4-morpholino pyridin-2(1H)-one] | < 0.1 | 100 to 500
2 | Cc1cnc(C(CCN(C)C)Nc2ccc3c(c2)Sc2cccc(-c4cc(N5CCOCC5)cc(=O)[nH]4)c2S3)cn1 (single isomer, unassigned) [Example 1-22-12-1, 6-(7-((3-(dimethylamino)-1-(5-methylpyrazin-2-yl)propyl)amino)thianthren-1-yl)-4-morpholinopyridin-2(1H)-one] | < 0.1 | 100 to 500
3 | COCC(Nc1ccc2c(c1)Sc1cccc(-c3cc(N4CCOCC4)cc(=O)[nH]3)c1S2)c1ccc(C)cn1 (centres unmarked) [Example 1-12-100, 6-(7-((2-Methoxy-1-(5-methylpyridin-2-yl)ethyl)amino)thianthren-1-yl)-4-morpholino pyridin-2(1H)-one] | < 0.1 | < 100

More lines, main results first:

Row | IC50 (ATM) [µM] | SMILES | SER2 (concentration at which the radiation sensitivity-enhancement ratio reaches 2) [1] [nM]
4 | < 0.1 | N#Cc1cncc(CNc2ccc3c(c2)Cc2cccc(-c4cc(N5CCOCC5)cc(=O)[nH]4)c2O3)c1 [Example 2-14-7, 5-(((5-(4-Morpholino-6-oxo-1,6-dihydropyridin-2-yl)-9H-xanthen-2-yl)amino)methyl)nicotinonitrile] | 500 to 2000
5 | < 0.1 | O=c1cc(N2CCOCC2)cc(-c2cccc3c2Oc2ccc(NCc4ccc(F)nc4)cc2C3)[nH]1 [Example 2-2-11, 6-(7-(((6-Fluoropyridin-3-yl)methyl)amino)-9H-xanthen-4-yl)-4-morpholino pyridin-2 (1H)-one] | 100 to 500
6 | < 0.1 | CCN(C)c1cncc(CNc2ccc3c(c2)Cc2cccc(-c4cc(N5CCOCC5)cc(=O)[nH]4)c2O3)c1 [Example 2-21-9, 6-(7-(((5-(Ethyl(methyl)amino)pyridin-3-yl)methyl)amino)-9H-xanthen-4-yl)-4-morpholino pyridin-2(1H)-one] | 500 to 2000
7 | < 0.1 | COCCN1CCC(Nc2ccc3c(c2)Sc2cccc(-c4cc(N5CCOCC5)cc(=O)[nH]4)c2S3)CC1 [Example 1-26-1, 6-(7-((1-(2-methoxyethyl)piperidin-4-yl)amino)thianthren-1-yl)-4-morpholinopyridin-2(1H)-one] | 100 to 500
